Where two headings read alike, the source gives them in different places.
Key:
[1] = system: HUVEC intracellular acid phosphatase; assay type: biochemical, human
[2] = system: HDMEC intracellular acid phosphatase; test: acid phosphatase assay of HDMEC with AttoPhos/BBTP; assay type: biochemical, human; conditions: for Fluorescence: A/2 plate
Method: (§1) To establish a relation between acid phosphatase activity and cell numbers, cells were seeded at various densities (50-20,000) onto replicate plastic 96-well plates or half area 96-well microtiter plates (Costar) and incubated at 37° C. for 3.5 hours to allow attachment. Cell number was then assessed by measuring intracellular acid phosphatase with three different substrates: p-nitrophenyl phosphate, which has a calorimetric endpoint, 4-methylumbelliferyl phosphate (MUP) and 2'-[2-benzthiazoyl]-6'-hydoxybenzothiazole phosphate bis-[2-amino-2-methyl-13-propanediol] salt (AttoPhos™), which have fluorometric endpoints.
(§2) Plates were incubated for 1 hour at room temperature and the reaction was terminated with 50 μL of stop solution (240 mM diethanolamine, pH 10). Fluorescence was measured at excitation wavelength of 450 nm and emission wavelength of 580 nm using a fluorimeter (Cytofluor 4000, PerSeptive Biosystems). Nonenzymatic hydrolysis was determined in wells containing no cells and subtracted from the experimental values. Since the background is subtracted, in general, the actual signal to noise ratios at lower cell numbers is better than what presented in the table.

CHO-K1 acid phosphatase = test: acid phosphatase assay of CHO-K1 with AttoPhos/BBTP; assay type: biochemical, Chinese hamster; conditions: for Fluorescence: A/2 plate
Method: as §1, §2

[3] = system: 3T3 cells acid phosphatase; test: acid phosphatase assay of 3T3 cells with AttoPhos/BBTP; assay type: biochemical, mouse; conditions: for Fluorescence: 96-well plate, AttoPhos 500 μM
Method: as §1
as §2, with “After washing with D-PBS, 150 μL 0.5 mM AttoPhos™ in 0.1 M Tris-citrate (0.1 M Tris-base, 0.1 M citric acid, pH 6.5 containing 0.25% Triton X-100) was added to each well and placed on an orbital shaker for 5 minutes as described for MUP. Plates” for “Plates”

T47-D acid phosphatase = test: Km of substrate for acid phosphatase, T47-D; assay type: biochemical; conditions: T47-D human breast carcinoma; BBTP 1.5 mM, 1 h at RT
Description: (§3) Km of substrate for acid phosphatase for a variety of cells

K562 acid phosphatase = test: Km of substrate for acid phosphatase, K562; assay type: biochemical; conditions: K562 suspension, human chronic myelogenous leukemia; BBTP 1 mM, 1 h at RT
Description: as §3

HL-60 acid phosphatase = test: Km of substrate for acid phosphatase, HL-60; assay type: biochemical; conditions: HL-60 suspension, human promyelocytic leukemia; BBTP 1 mM, 1 h at RT
Description: as §3

2008 acid phosphatase = test: Km of substrate for acid phosphatase, 2008; assay type: biochemical; conditions: 2008 human ovarian carcinoma; BBTP 1 mM, 1 h at RT
Description: as §3

Molt-4 acid phosphatase = test: Km of substrate for acid phosphatase, Molt-4; assay type: biochemical; conditions: Molt-4 suspension, human acute lymphoblastic leukemia; BBTP 1 mM, 1 h at RT
Description: as §3

acid phosphatases = test: Km of BBTP for acid phosphatases; assay type: biochemical; conditions: see EXAMPLES
Description: as §3

Alkaline phosphatase = conditions: reported in U.S. Pat. No. 5,424,440; read-out: Km of the substrate with alkaline phosphatase; cited from earlier work

In the case of `O=P(O)(O)Oc1ccc2nc(-c3nc4ccccc4s3)sc2c1` [BBTP, 2'(2-benzothiazoyl)-6'-hydroxy-benzthiazole phosphate], the Fluorescence ([1]; 625 HUVEC/well, 96-well plate, AttoPhos 250 μM) was 1695 ± 65 RFU, the Fluorescence ([1]; 625 HUVEC/well, 96-well plate, AttoPhos 500 μM) was 1561 ± 39 RFU and the Fluorescence ([1]; 625 HUVEC/well, half area 96-well (A/2) plate, AttoPhos 250 μM) was 1867 ± 68 RFU. It also gave a Fluorescence ([1]; 625 HUVEC/well, half area 96-well (A/2) plate, AttoPhos 500 μM) of 2040 ± 55 RFU, a Fluorescence ([1]; 1,250 HUVEC/well, 96-well plate, AttoPhos 250 μM) of 2853 ± 180 RFU and a Fluorescence ([1]; 1,250 HUVEC/well, 96-well plate, AttoPhos 500 μM) of 2737 ± 106 RFU. It also gave a Fluorescence ([1]; 1,250 HUVEC/well, half area 96-well (A/2) plate, AttoPhos 250 μM) of 3438 ± 132 RFU, a Fluorescence ([1]; 1,250 HUVEC/well, half area 96-well (A/2) plate, AttoPhos 500 μM) of 3757 ± 132 RFU and a Fluorescence ([1]; 2,500 HUVEC/well, 96-well plate, AttoPhos 250 μM) of 5019 ± 188 RFU. The Fluorescence ([1]; 2,500 HUVEC/well, 96-well plate, AttoPhos 500 μM) was 5186 ± 125 RFU, the Fluorescence ([1]; 2,500 HUVEC/well, half area 96-well (A/2) plate, AttoPhos 250 μM) was 6664 ± 128 RFU and the Fluorescence ([1]; 2,500 HUVEC/well, half area 96-well (A/2) plate, AttoPhos 500 μM) was 7046 ± 240 RFU. It also gave a Fluorescence ([1]; 5,000 HUVEC/well, 96-well plate, AttoPhos 250 μM) of 10578 ± 119 RFU, a Fluorescence ([1]; 5,000 HUVEC/well, 96-well plate, AttoPhos 500 μM) of 10406 ± 498 RFU and a Fluorescence ([1]; 5,000 HUVEC/well, half area 96-well (A/2) plate, AttoPhos 250 μM) of 12807 ± 399 RFU. It also gave a Fluorescence ([1]; 5,000 HUVEC/well, half area 96-well (A/2) plate, AttoPhos 500 μM) of 14586 ± 498 RFU, a Fluorescence ([1]; 10,000 HUVEC/well, 96-well plate, AttoPhos 250 μM) of 20670 ± 967 RFU and a Fluorescence ([1]; 10,000 HUVEC/well, 96-well plate, AttoPhos 500 μM) of 21198 ± 240 RFU. For the same compound, the Fluorescence ([1]; 10,000 HUVEC/well, half area 96-well (A/2) plate, AttoPhos 250 μM) was 25684 ± 1488 RFU, the Fluorescence ([1]; 10,000 HUVEC/well, half area 96-well (A/2) plate, AttoPhos 500 μM) was 28302 ± 448 RFU and the Fluorescence ([1]; 20,000 HUVEC/well, 96-well plate, AttoPhos 250 μM) was 37889 ± 501 RFU. It also gave a Fluorescence ([1]; 20,000 HUVEC/well, 96-well plate, AttoPhos 500 μM) of 38528 ± 1540 RFU, a Fluorescence ([1]; 20,000 HUVEC/well, half area 96-well (A/2) plate, AttoPhos 250 μM) of 46409 ± 1009 RFU and a Fluorescence ([1]; 20,000 HUVEC/well, half area 96-well (A/2) plate, AttoPhos 500 μM) of 49706 ± 790 RFU. The Km ([1]; HUVEC, BBTP 0.5 mM, 1 h at RT) was 88 µM, the Fluorescence ([2]; 50 HDMEC/well, AttoPhos 100 μM) was 829 ± 26 RFU and the Fluorescence ([2]; 50 HDMEC/well, AttoPhos 250 μM) was 1014 ± 80 RFU. It also gave a Fluorescence ([2]; 50 HDMEC/well, AttoPhos 500 μM) of 1496 ± 4.6 RFU, a Fluorescence ([2]; 100 HDMEC/well, AttoPhos 100 μM) of 1609 ± 157 RFU and a Fluorescence ([2]; 100 HDMEC/well, AttoPhos 250 μM) of 1545 ± 253 RFU. The Fluorescence ([2]; 100 HDMEC/well, AttoPhos 500 μM) was 2032 ± 97 RFU, the Fluorescence ([2]; 250 HDMEC/well, AttoPhos 100 μM) was 2347 ± 209 RFU and the Fluorescence ([2]; 250 HDMEC/well, AttoPhos 250 μM) was 2383 ± 24 RFU. For the same compound, the Fluorescence ([2]; 250 HDMEC/well, AttoPhos 500 μM) was 3686 ± 270 RFU, the Fluorescence ([2]; 500 HDMEC/well, AttoPhos 100 μM) was 3682 ± 263 RFU and the Fluorescence ([2]; 500 HDMEC/well, AttoPhos 250 μM) was 3998 ± 313 RFU. The Fluorescence ([2]; 500 HDMEC/well, AttoPhos 500 μM) was 6404 ± 665 RFU, the Fluorescence ([2]; 1,000 HDMEC/well, AttoPhos 100 μM) was 6653 ± 483 RFU and the Fluorescence ([2]; 1,000 HDMEC/well, AttoPhos 250 μM) was 7594 ± 411 RFU. For the same compound, the Fluorescence ([2]; 1,000 HDMEC/well, AttoPhos 500 μM) was 9822 ± 930 RFU, the Fluorescence ([2]; 2,500 HDMEC/well, AttoPhos 100 μM) was 15566 ± 167 RFU and the Fluorescence ([2]; 2,500 HDMEC/well, AttoPhos 250 μM) was 13382 ± 310 RFU. It also gave a Fluorescence ([2]; 2,500 HDMEC/well, AttoPhos 500 μM) of 20580 ± 436 RFU, a Fluorescence ([2]; 5,000 HDMEC/well, AttoPhos 100 μM) of 28018 ± 817 RFU and a Fluorescence ([2]; 5,000 HDMEC/well, AttoPhos 250 μM) of 25468 ± 843 RFU. For the same compound, the Fluorescence ([2]; 5,000 HDMEC/well, AttoPhos 500 μM) was 34112 ± 1797 RFU, the Fluorescence ([2]; 10,000 HDMEC/well, AttoPhos 100 μM) was 35787 ± 1325 RFU and the Fluorescence ([2]; 10,000 HDMEC/well, AttoPhos 250 μM) was 40725 ± 1850 RFU. The Fluorescence ([2]; 10,000 HDMEC/well, AttoPhos 500 μM) was 54430 ± 133 RFU, the Km ([2]; HDMEC, BBTP 1.5 mM, 1 h at RT, read-out: Km) was 80 µM and the Km ([2]; human dermal microvascular endothelial cells, read-out: apparent Km) was roughly 100 µM. The Fluorescence (CHO-K1 acid phosphatase; 250 CHO-K1/well, AttoPhos 100 μM) was 552 ± 26 RFU, the Fluorescence (CHO-K1 acid phosphatase; 250 CHO-K1/well, AttoPhos 250 μM) was 683 ± 36 RFU and the Fluorescence (CHO-K1 acid phosphatase; 250 CHO-K1/well, AttoPhos 500 μM) was 721 ± 90 RFU. The Fluorescence (CHO-K1 acid phosphatase; 500 CHO-K1/well, AttoPhos 100 μM) was 790 ± 70 RFU, the Fluorescence (CHO-K1 acid phosphatase; 500 CHO-K1/well, AttoPhos 250 μM) was 1008 ± 21 RFU and the Fluorescence (CHO-K1 acid phosphatase; 500 CHO-K1/well, AttoPhos 500 μM) was 1010 ± 126 RFU. For the same compound, the Fluorescence (CHO-K1 acid phosphatase; 1,000 CHO-K1/well, AttoPhos 100 μM) was 1031 ± 138 RFU, the Fluorescence (CHO-K1 acid phosphatase; 1,000 CHO-K1/well, AttoPhos 250 μM) was 1296 ± 64 RFU and the Fluorescence (CHO-K1 acid phosphatase; 1,000 CHO-K1/well, AttoPhos 500 μM) was 1400 ± 47 RFU. It also gave a Fluorescence (CHO-K1 acid phosphatase; 2,000 CHO-K1/well, AttoPhos 100 μM) of 2179 ± 156 RFU, a Fluorescence (CHO-K1 acid phosphatase; 2,000 CHO-K1/well, AttoPhos 250 μM) of 2628 ± 148 RFU and a Fluorescence (CHO-K1 acid phosphatase; 2,000 CHO-K1/well, AttoPhos 500 μM) of 2936 ± 382 RFU. It also gave a Fluorescence (CHO-K1 acid phosphatase; 4,000 CHO-K1/well, AttoPhos 100 μM) of 3905 ± 234 RFU, a Fluorescence (CHO-K1 acid phosphatase; 4,000 CHO-K1/well, AttoPhos 250 μM) of 4162 ± 122 RFU and a Fluorescence (CHO-K1 acid phosphatase; 4,000 CHO-K1/well, AttoPhos 500 μM) of 4832 ± 357 RFU. For the same compound, the Fluorescence (CHO-K1 acid phosphatase; 8,000 CHO-K1/well, AttoPhos 100 μM) was 7785 ± 684 RFU, the Fluorescence (CHO-K1 acid phosphatase; 8,000 CHO-K1/well, AttoPhos 250 μM) was 8356 ± 237 RFU and the Fluorescence (CHO-K1 acid phosphatase; 8,000 CHO-K1/well, AttoPhos 500 μM) was 9138 ± 440 RFU. The Fluorescence (CHO-K1 acid phosphatase; 12,000 CHO-K1/well, AttoPhos 100 μM) was 12481 ± 462 RFU, the Fluorescence (CHO-K1 acid phosphatase; 12,000 CHO-K1/well, AttoPhos 250 μM) was 12959 ± 124 RFU and the Fluorescence (CHO-K1 acid phosphatase; 12,000 CHO-K1/well, AttoPhos 500 μM) was 12198 ± 83 RFU. It also gave a Km (CHO-K1 acid phosphatase; CHO-K1 Chinese hamster ovary, BBTP 0.5 mM, 1 h at RT) of 172 µM, a Fluorescence ([3]; 250 3T3 cells/well) of 1866 ± 100 RFU and a Fluorescence ([3]; 500 3T3 cells/well) of 3194 ± 172 RFU. The Fluorescence ([3]; 1,000 3T3 cells/well) was 6149 ± 176 RFU, the Fluorescence ([3]; 2,000 3T3 cells/well) was 10115 ± 840 RFU and the Fluorescence ([3]; 4,000 3T3 cells/well) was 21314 ± 1558 RFU. The Fluorescence ([3]; 8,000 3T3 cells/well) was 44831 ± 1793 RFU, the Fluorescence ([3]; 10,000 3T3 cells/well) was 49860 ± 556 RFU and the Km ([3]; NIH 3T3 mouse embryonic fibroblasts, BBTP 0.5 mM, 1, at RT) was 87 µM. The Km (T47-D acid phosphatase) was 261 µM, the Km (K562 acid phosphatase) was 82 µM and the Km (HL-60 acid phosphatase) was 108 µM. The Km (2008 acid phosphatase) was 106 µM, the Km (Molt-4 acid phosphatase) was 130 µM and the Km (acid phosphatases) was roughly 100 µM. For the same compound, the Km (Alkaline phosphatase) was roughly 2000 µM.

Reference: patent US5972639A, “Fluorescence-based assays for measuring cell proliferation” (Irori, priority 1997, dated 1999)
